≈ marks a conversion by molar mass, not a printed value.
Assays:
M. tuberculosis H37Rv = details: strain M. tuberculosis H37Rv, inside macrophages; cited from earlier work
M. tuberculosis = details: cited from earlier work
[1] = tested on: Mycobacterium tuberculosis strain EH 4.0 (361.269); test: Test 4: resazurin growth inhibition assay, M. tuberculosis strain EH 4.0; type: cell-based; details: read-out: pIC50 (converted)
Excerpt: Test 4 (See Also Test 1 Above; in this Test a Different Strain of Mycobacterium tuberculosis Strain is Employed)
Appropriate solutions of experimental and reference compounds were made in 96 well plates with 7H9 medium. Samples of Mycobacterium tuberculosis strain EH 4.0 (361.269) were taken from cultures in stationary growth phase. These were first diluted to obtain an optical density of 0.3 at 600 nm wavelength and then diluted 1/100, resulting in an inoculum of approximately 5×10 exp5 colony forming units per well. Plates were incubated at 37° C. in plastic bags to prevent evaporation. After 7 days, resazurin was added to all wells. Two days later, fluorescence was measured on a Gemini EM Microplate Reader with 543 nm excitation and 590 nm emission wavelengths and MIC50 and/or pIC50 values (or the like, e.g. IC50, IC90, pIC90, etc) were (or may be) calculated. pIC50 values may be recorded below in μg/mL.

Row | Structure (SMILES) | MIC50 (M. tuberculosis H37Rv) [nM] | activity against both replicating and non-replicating bacteria (M. tuberculosis) | IC50 [1] [nM]
1 | CCc1nc2ccc(Cl)cn2c1C(=O)NCc1ccc(N2CCC(c3ccc(OC(F)(F)F)cc3)CC2)cc1 [Compound Q203] | 0.28 (≈ 0.156 ng/mL) | highly active | –
2 | CCc1nc2ccc(Cl)cn2c1C(=O)NCc1ccc(N2CC3CC(F)CC3C2)cc1 (stereo not drawn) [Cpd 1] | – | – | 39.8
3 | CCc1nc2sc(C)cn2c1C(=O)NCc1ccc(N2CC3CC(F)CC3C2)cc1 (stereo not drawn) [Cpd 2] | – | – | 50.1
4 | CCc1nc2n(c1C(=O)NCc1ccc(N3CC4CC(F)CC4C3)cc1)CCCC2 (stereo not drawn) [Cpd 3] | – | – | 100
5 | CCc1nc2ncc(Cl)cn2c1C(=O)NCc1ccc(N2CC3CC(F)CC3C2)cc1 (stereo not drawn) [Cpd 4] | – | – | 112
6 | CCc1nc2sc(C)cn2c1C(=O)NCc1ccc(N2CC3C(C2)C3C(F)(F)F)cc1 (stereo not drawn) [Cpd 7] | – | – | 31.6
7 | Cc1nn2ccccc2c1C(=O)NCc1ccc(N2C[C@H]3C[C@H](F)C[C@H]3C2)cc1 [Cpd 8] | – | – | 1120
8 | CCc1nc2ncc(Cl)cn2c1C(=O)NCc1ccc(N2C[C@@H]3CC(F)(F)C[C@@H]3C2)cc1 [Cpd 9] | – | – | 15.8

From US11179396B2, “Heterocyclic compounds as antibacterials” (Janssen Sciences Ireland Unlimited Company, priority 2016, dated 2021)
